# Measurements taken from article PMC8161026, “Synthesis and Anticancer Activity Evaluation of 5-[2-Chloro-3-(4-nitrophenyl)-2-propenylidene]-4-thiazolidinones” (Molecules, 2021).
# Experiments:
# OVCAR-8 = test: NCI DTP 60 cell line screen, SRB
# NCI-322M = test: NCI DTP 60 cell line screen, SRB; settings: 48 h
# BT-549 = test: NCI DTP 60 cell line screen, SRB
# K-562 = K-562 (Leukemia), 48 h, SRB
# SN12C = test: cells; settings: Homo sapiens, 48 h
# 786-0 = test: cells; settings: Homo sapiens, 786-0, 48 h
# CAKI-1 = test: NCI DTP 60 cell line screen, SRB
# Prostate Cancer subpanel = test: cells
# Experimental: (§1) At the first stage of biological activity study, the antitumor activity screening of the selected compounds 2b, 2c, 2f, 2h, and 2j was performed according to the NCI DTP (USA) standard protocol at the concentrations ranging from 10^−4 to 10^−8 M toward 60 tumor cell lines. The percentage of growth was evaluated spectrophotometrically versus controls not treated with test agents after 48 h exposure and using SRB protein assay to estimate cell viability or growth. Dose–response parameters were calculated for each cell line: GI50—molar concentration of the compound that inhibits 50% net cell growth; TGI—molar concentration of the compound leading to the total inhibition; and LC50—molar concentration of the compound leading to 50% net cell death. Furthermore, mean graph midpoints (MG_MID) were calculated for each of the parameters, giving an average activity parameter over all cell lines for the tested compound. For the MG_MID calculation, insensitive cell lines were included with the highest concentration tested.
# (§2) The selectivity index (SI) obtained by dividing the full panel MG-MID (mM) of the tested compound by their individual subpanel MG-MID (mM) was considered as a measure of selectivity of anticancer activity (Table 3).
# (§3) Primary anticancer assay was performed on a panel of approximately sixty human tumor cell lines derived from nine neoplastic diseases, in accordance with the protocol of the Drug Evaluation Branch, National Cancer Institute, Bethesda. Tested compounds were added to the culture at a single concentration (10^−5 M) and the cultures were incubated for 48 h. End point determinations were made with a protein binding dye, sulforhodamine B (SRB). […] The percentage growth was evaluated spectrophotometrically versus controls not treated with test agents.
# (§4) Dose–response parameters (GI50, TGI, LC50) were calculated for each compound. […] The drug concentration resulting in total growth inhibition (TGI) was calculated from Ti = Tz. The LC50 (concentration of drug resulting in a 50% reduction in the measured protein at the end of the drug treatment as compared to that at the beginning) indicating a net loss of cells following treatment was calculated from [(Ti − Tz)/Tz] × 100 = −50 (2). Values were calculated for each of these parameters if the level of activity was reached; however, if the effect was not reached or was excessive, the value for that parameter was expressed as more or less than the maximum or minimum concentration tested.
# Renal Cancer subpanel = test: cells
# Experimental: as §1, §2, §3, §4
# Breast Cancer subpanel = test: cells
# Experimental: as §1, §2, §3, §4
# CNS Cancer subpanel = test: cells
# Experimental: as §1, §2, §3, §4
# Melanoma subpanel = test: cells
# Experimental: as §1, §2, §3, §4
# Leukemia subpanel = test: cells
# Experimental: as §1, §2, §3, §4
# [1] = test system: Non-Small Cell Lung Cancer subpanel; test: cells
# Experimental: as §1, §2, §3, §4
# Colon Cancer subpanel = test: cells
# Experimental: as §1, §2, §3, §4
# Ovarian Cancer subpanel = test: cells
# Experimental: as §1, §2, §3, §4
# EKVX = test: cells; settings: Homo sapiens, 48 h
# A549/ATCC = A549/ATCC (Non-Small Cell Lung Cancer), 48 h, SRB
# [2] = Homo sapiens, read-out: MG_MID, GI50
# [3] = full panel MG_MID / Prostate Cancer subpanel MG_MID
# [4] = Homo sapiens, read-out: MG_MID, LC50
# [5] = full panel MG_MID / Renal Cancer subpanel MG_MID
# [6] = full panel MG_MID / Breast Cancer subpanel MG_MID
# [7] = full panel MG_MID / CNS Cancer subpanel MG_MID
# [8] = full panel MG_MID / Melanoma subpanel MG_MID
# [9] = full panel MG_MID / Leukemia subpanel MG_MID
# [10] = full panel MG_MID / Non-Small Cell Lung Cancer subpanel MG_MID
# [11] = full panel MG_MID / Colon Cancer subpanel MG_MID
# [12] = full panel MG_MID / Ovarian Cancer subpanel MG_MID
structure (smiles),measurement,setting,value
"O=C1/C(=C/C(Cl)=C/c2ccc([N+](=O)[O-])cc2)SC(=S)N1/N=C\C(Cl)=C\c1ccc([N+](=O)[O-])cc1 [Compound 2c, 5-[(Z,2Z)-2-Chloro-3-(4-nitrophenyl)-2-propenylidene]-3-[(Z,2Z)-2-chloro-3-(4-nitrophenyl)-2-propenylideneamino]-2-thioxo-4-thiazolidinone]",GI50,"OVCAR-8; Homo sapiens, OVCAR-8, 48 h",1980 nM
same,CC50,"OVCAR-8; Homo sapiens, OVCAR-8, 48 h, read-out: LC50",8.38 µM
same,TGI,"OVCAR-8; OVCAR-8 (Ovarian Cancer), 48 h, SRB",4.08 µM
same,GI50,"NCI-322M; Homo sapiens, NCI-322M",87.6 µM
same,CC50,"NCI-322M; Homo sapiens, NCI-322M, read-out: LC50",> 100 µM
same,TGI,"NCI-322M; NCI-322M (Non-Small Cell Lung Cancer), SRB",> 100 µM
same,TGI,"BT-549; BT-549 (Breast Cancer), 48 h, SRB",76.0 µM
same,GI50,"BT-549; Homo sapiens, BT-549, 48 h",27.3 µM
same,CC50,"BT-549; Homo sapiens, BT-549, 48 h, read-out: LC50",> 100 µM
same,TGI,K-562,25.5 µM
same,GI50,SN12C,29 µM
same,CC50,SN12C; read-out: LC50,> 100 µM
same,GI50,786-0,12.1 µM
same,CC50,786-0; read-out: LC50,77.8 µM
same,TGI,"CAKI-1; CAKI-1 (Renal Cancer), 48 h, SRB",11.2 µM
same,GI50,"CAKI-1; Homo sapiens, CAKI-1, 48 h",3.11 µM
same,CC50,"CAKI-1; Homo sapiens, CAKI-1, 48 h, read-out: LC50",> 100 µM
same,GI50,Prostate Cancer subpanel; [2],14.9 µM
same,"SI (selectivity index), GI50",Prostate Cancer subpanel; [3],1.21
same,"SI (selectivity index), LC50",Prostate Cancer subpanel; [3],1.09
same,"SI (selectivity index), TGI",Prostate Cancer subpanel; [3],0.95
same,GI50,Renal Cancer subpanel; [2],16.9 µM
same,CC50,Renal Cancer subpanel; [4],80.1 µM
same,"MG_MID, TGI",Renal Cancer subpanel; Renal Cancer panel mean,43.3 µM
same,"SI (selectivity index), GI50",Renal Cancer subpanel; [5],1.07
same,"SI (selectivity index), LC50",Renal Cancer subpanel; [5],1.02
same,"SI (selectivity index), TGI",Renal Cancer subpanel; [5],1.00
same,"MG_MID, TGI",Breast Cancer subpanel; Breast Cancer panel mean,51.3 µM
same,GI50,Breast Cancer subpanel; [2],17.5 µM
same,CC50,Breast Cancer subpanel; [4],90.2 µM
same,"SI (selectivity index), GI50",Breast Cancer subpanel; [6],1.03
same,"SI (selectivity index), LC50",Breast Cancer subpanel; [6],0.91
same,"SI (selectivity index), TGI",Breast Cancer subpanel; [6],0.84
same,"MG_MID, TGI",CNS Cancer subpanel; CNS Cancer panel mean,52.1 µM
same,GI50,CNS Cancer subpanel; [2],23.4 µM
same,CC50,CNS Cancer subpanel; [4],88.6 µM
same,"SI (selectivity index), GI50",CNS Cancer subpanel; [7],0.77
same,"SI (selectivity index), LC50",CNS Cancer subpanel; [7],0.92
same,"SI (selectivity index), TGI",CNS Cancer subpanel; [7],0.83
same,GI50,Melanoma subpanel; [2],17.7 µM
same,CC50,Melanoma subpanel; [4],74.3 µM
same,"MG_MID, TGI",Melanoma subpanel; Melanoma panel mean,38.0 µM
same,"SI (selectivity index), GI50",Melanoma subpanel; [8],1.02
same,"SI (selectivity index), LC50",Melanoma subpanel; [8],1.10
same,"SI (selectivity index), TGI",Melanoma subpanel; [8],1.13
same,GI50,Leukemia subpanel; [2],3.83 µM
same,CC50,Leukemia subpanel; [4],90 µM
same,"MG_MID, TGI",Leukemia subpanel; Leukemia panel mean,18.6 µM
same,"SI (selectivity index), GI50",Leukemia subpanel; [9],4.70
same,"SI (selectivity index), LC50",Leukemia subpanel; [9],0.91
same,"SI (selectivity index), TGI",Leukemia subpanel; [9],2.32
same,GI50,[1]; [2],25.9 µM
same,CC50,[1]; [4],83 µM
same,"MG_MID, TGI",[1]; Non-Small Cell Lung Cancer panel mean,44.8 µM
same,"SI (selectivity index), GI50",[1]; [10],0.69
same,"SI (selectivity index), LC50",[1]; [10],0.98
same,"SI (selectivity index), TGI",[1]; [10],0.96
same,"MG_MID, TGI",Colon Cancer subpanel; Colon Cancer panel mean,59.7 µM
same,GI50,Colon Cancer subpanel; [2],20.7 µM
same,CC50,Colon Cancer subpanel; [4],77.8 µM
same,"SI (selectivity index), GI50",Colon Cancer subpanel; [11],0.87
same,"SI (selectivity index), LC50",Colon Cancer subpanel; [11],1.05
same,"SI (selectivity index), TGI",Colon Cancer subpanel; [11],0.72
same,GI50,Ovarian Cancer subpanel; [2],18.2 µM
same,CC50,Ovarian Cancer subpanel; [4],59 µM
same,"MG_MID, TGI",Ovarian Cancer subpanel; Ovarian Cancer panel mean,36.2 µM
same,"SI (selectivity index), GI50",Ovarian Cancer subpanel; [12],0.99
same,"SI (selectivity index), LC50",Ovarian Cancer subpanel; [12],1.38
same,"SI (selectivity index), TGI",Ovarian Cancer subpanel; [12],1.19
same,GI50,EKVX,23.7 µM
same,CC50,EKVX; read-out: LC50,96.1 µM
same,TGI,A549/ATCC,42.6 µM
